Read-outs that look alike come from different tables or passages of the source.
Columns and labels:
[1] = EXE metabolite identification in human liver microsomes by UPLC/MS/MS; assay type: in vitro ADME; settings: 50 μg HLM, 400 μmol/L EXE, NADPH regeneration system, 37°C, 4 h; for identified as phase I EXE metabolite in incubations of EXE with pooled human liver microsomes: comparison to reference compounds
[2] = molecular target: T1, wild type aromatase (CYP19A1*1) (Homo sapiens, UniProt P11511); experiment: Anti-aromatase activity assay, estrone formation by UPLC/MS/MS, microsomes of HEK293 overexpressing wild type aromatase; assay type: biochemical
T1 sequence (P11511 1-503): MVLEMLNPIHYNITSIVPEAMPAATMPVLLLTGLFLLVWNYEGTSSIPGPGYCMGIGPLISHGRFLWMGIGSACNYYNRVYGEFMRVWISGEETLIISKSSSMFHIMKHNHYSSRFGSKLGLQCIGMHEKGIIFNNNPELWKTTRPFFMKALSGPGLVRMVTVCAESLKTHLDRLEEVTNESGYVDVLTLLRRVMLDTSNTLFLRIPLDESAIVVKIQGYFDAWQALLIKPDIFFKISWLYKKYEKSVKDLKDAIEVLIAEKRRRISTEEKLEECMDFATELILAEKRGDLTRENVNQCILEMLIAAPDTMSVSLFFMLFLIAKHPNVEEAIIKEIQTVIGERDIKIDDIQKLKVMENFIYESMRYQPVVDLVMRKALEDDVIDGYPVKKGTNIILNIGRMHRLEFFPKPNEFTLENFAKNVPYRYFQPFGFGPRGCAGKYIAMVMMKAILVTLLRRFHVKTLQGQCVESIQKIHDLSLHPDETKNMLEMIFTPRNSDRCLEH

aromatase = tested on: aromatase; design: method as in Buzzetti et al. 1993; settings: ref Buzzetti et al. 1993; cited from earlier work

Question: With `C[C@]12C=CC(=O)C=C1C(CO)=CC1C2CC[C@]2(C)C(=O)CCC12` (some centres unmarked) [6-hydroxymethylandrosta-1,4,6-triene-3,17-dione] as the compound, how does the “identified as phase I EXE metabolite in incubations of EXE with pooled human liver microsomes” value [1] read?
Answer: Its value is “identified”.

Question: And the IC50 [2]?
Answer: Its IC50 is 61 ± 20 µM.

Question: What about the “fold less potent than EXE (wild type aromatase)” value ([2]; ratio of IC50 values versus EXE) of the same compound?
Answer: Its value is 67 fold.

Question: Which IC50 [2] does the source give for `C[C@]12C=CC(=O)C=C1[C@@]1(CO1)CC1C2CC[C@]2(C)C(=O)CCC12` (stereo partly drawn) [6α-spirooxiranandrosta-1,4-diene-3,17-dione] here?
Answer: Its IC50 is 1.2 ± 0.19 µM.

Question: What about the “fold more potency than its 6β stereoisomer (wild type aromatase)” value ([2]; ratio of IC50 values versus 6β-spirooxiranandrosta-1,4-diene-3,17-dione) of the same compound?
Answer: Its value is about 5 fold.

Question: Which results are given for `C[C@]12C=CC(=O)C=C1C(O)(CO)CC1C2CC[C@@]2(C)C1CC[C@@H]2O` (stereo partly drawn) [6α/β,17β-dihydroxy-6α/β-hydroxymethylandrosta-1,4-diene-3-one]?
Answer: identified as phase I EXE metabolite in incubations of EXE with pooled human liver microsomes [1]: identified; IC50 [2]: > 100 µM

Question: What does the source list for `C[C@]12C=CC(=O)C=C1C(O)(CO)CC1C2CC[C@]2(C)C(=O)CCC12` (stereo partly drawn) [6α/β-hydroxy-6α/β-hydroxymethylandrosta-1,4-diene-3,17-dione]?
Answer: identified as phase I EXE metabolite in incubations of EXE with pooled human liver microsomes [1]: identified; IC50 [2]: > 100 µM

Question: With `C[C@]12C=CC(=O)C=C1[C@]1(CO1)CC1C2CC[C@]2(C)C(=O)CCC12` (stereo partly drawn) [6β-spirooxiranandrosta-1,4-diene-3,17-dione] as the compound, how does the IC50 [2] read?
Answer: The IC50 was 5.7 ± 1.6 µM.

Question: For `C=C1CC2C(CC[C@@]3(C)C2CC[C@@H]3O)[C@@]2(C)C=CC(=O)C=C12` (stereo partly drawn) [17β-dihydroexemestane], which “abundance of the EXE metabolite formed in human liver microsomes” value [1] is on record?
Answer: The value was “predominant EXE metabolite”.

Question: And the “identified as phase I EXE metabolite in incubations of EXE with pooled human liver microsomes” value [1]?
Answer: Its value is “identified”.

Question: And the “fold less potent than EXE (earlier study)” value (aromatase)?
Answer: Its value is “approximately 2.6 fold”.

Question: For `C[C@]12CC[C@H]3[C@@H](C=C(CO)C4=CC(=O)C=C[C@@]43C)[C@@H]1CC[C@@H]2O` [17β-hydroxy-6-hydroxymethylandrosta-1,4,6-triene-3-one], which IC50 ([2]; 15 μg HEK293 microsomes, 5 μmol/L androstenedione, NADPH regeneration system, 37°C, 2 h, read-out: IC50 for wild-type aromatase) is on record?
Answer: Its IC50 is over 100 µM.
